Assay results published in ChEMBL document CHEMBL4004849, “Tetrazolylmethyl quinolines: Design, docking studies, synthesis, anticancer and antifungal analyses” (2017).
Values after ≈ are worked out from the molar mass of the structure shown. Active and inactive are the calls of the source. The rule behind the calls is not given here.

Assays:
Type in all cases: functional
[1] = tested on: SNB-19; test: Growth inhibition of human SNB19 cells at 10^-5 M incubated for 48 hrs by sulforhodamine B assay relative to control
[2] = tested on: HCT-116; test: Growth inhibition of human HCT116 cells at 10^-5 M incubated for 48 hrs by sulforhodamine B assay relative to control
[3] = tested on: MOLT-4; test: Growth inhibition of human MOLT4 cells at 10^-5 M incubated for 48 hrs by sulforhodamine B assay relative to control
[4] = tested on: HL-60(TB); test: Growth inhibition of human HL-60(TB) cells at 10^-5 M incubated for 48 hrs by sulforhodamine B assay relative to control
[5] = tested on: IGROV-1; test: Growth inhibition of human IGROV1 cells at 10^-5 M incubated for 48 hrs by sulforhodamine B assay relative to control
[6] = tested on: NCI-H460; test: Growth inhibition of human NCI-H460 cells at 10^-5 M incubated for 48 hrs by sulforhodamine B assay relative to control
[7] = tested on: Candida albicans; test: Antifungal activity against Candida albicans after 24 hrs by serial dilution method
[8] = tested on: Malme-3M; test: Growth inhibition of human MALME-3M cells at 10^-5 M incubated for 48 hrs by sulforhodamine B assay relative to control
[9] = tested on: RXF 393; test: Growth inhibition of human RXF393 cells at 10^-5 M incubated for 48 hrs by sulforhodamine B assay relative to control
[10] = tested on: OVCAR-5; test: Growth inhibition of human OVCAR5 cells at 10^-5 M incubated for 48 hrs by sulforhodamine B assay relative to control
[11] = tested on: Aspergillus fumigatus; test: Antifungal activity against Aspergillus fumigatus at 100 ug/ml by disc diffusion method; conditions: read-out: IZ
[12] = tested on: EKVX; test: Growth inhibition of human EKVX cells at 10^-5 M incubated for 48 hrs by sulforhodamine B assay relative to control
[13] = tested on: A549; test: Growth inhibition of human A549/ATCC cells at 10^-5 M incubated for 48 hrs by sulforhodamine B assay relative to control
[14] = tested on: SN12C; test: Growth inhibition of human SN12C cells at 10^-5 M incubated for 48 hrs by sulforhodamine B assay relative to control
[15] = tested on: NCI-H226; test: Growth inhibition of human NCI-H226 cells at 10^-5 M incubated for 48 hrs by sulforhodamine B assay relative to control
[16] = tested on: SK-MEL-28; test: Growth inhibition of human SK-MEL-28 cells at 10^-5 M incubated for 48 hrs by sulforhodamine B assay relative to control
[17] = tested on: MCF7; test: Growth inhibition of human MCF7 cells at 10^-5 M incubated for 48 hrs by sulforhodamine B assay relative to control
[18] = tested on: K562; test: Growth inhibition of human K562 cells at 10^-5 M incubated for 48 hrs by sulforhodamine B assay relative to control
[19] = tested on: ACHN; test: Growth inhibition of human ACHN cells at 10^-5 M incubated for 48 hrs by sulforhodamine B assay relative to control
[20] = tested on: Aspergillus fumigatus; test: Antifungal activity against Aspergillus fumigatus after 24 hrs by serial dilution method
[21] = tested on: NCI-H23; test: Growth inhibition of human NCI-H23 cells at 10^-5 M incubated for 48 hrs by sulforhodamine B assay relative to control
[22] = tested on: OVCAR-4; test: Growth inhibition of human OVCAR4 cells at 10^-5 M incubated for 48 hrs by sulforhodamine B assay relative to control
[23] = tested on: OVCAR-8; test: Growth inhibition of human OVCAR8 cells at 10^-5 M incubated for 48 hrs by sulforhodamine B assay relative to control
[24] = tested on: HCT-15; test: Growth inhibition of human HCT15 cells at 10^-5 M incubated for 48 hrs by sulforhodamine B assay relative to control
[25] = tested on: MDA-MB-231; test: Growth inhibition of human MDA-MB-231/ATCC cells at 10^-5 M incubated for 48 hrs by sulforhodamine B assay relative to control
[26] = tested on: SR; test: Growth inhibition of human SR cells at 10^-5 M incubated for 48 hrs by sulforhodamine B assay relative to control
[27] = tested on: KM12; test: Growth inhibition of human KM12 cells at 10^-5 M incubated for 48 hrs by sulforhodamine B assay relative to control
[28] = tested on: U-251; test: Growth inhibition of human U251 cells at 10^-5 M incubated for 48 hrs by sulforhodamine B assay relative to control
[29] = tested on: M14; test: Growth inhibition of human M14 cells at 10^-5 M incubated for 48 hrs by sulforhodamine B assay relative to control
[30] = tested on: SK-MEL-5; test: Growth inhibition of human SK-MEL-5 cells at 10^-5 M incubated for 48 hrs by sulforhodamine B assay relative to control
[31] = tested on: HCC 2998; test: Growth inhibition of human HCC2998 cells at 10^-5 M incubated for 48 hrs by sulforhodamine B assay relative to control
[32] = tested on: LOX IMVI; test: Growth inhibition of human LOXIMVI cells at 10^-5 M incubated for 48 hrs by sulforhodamine B assay relative to control
[33] = tested on: UACC-62; test: Growth inhibition of human UACC62 cells at 10^-5 M incubated for 48 hrs by sulforhodamine B assay relative to control
[34] = tested on: BT-549; test: Growth inhibition of human BT549 cells at 10^-5 M incubated for 48 hrs by sulforhodamine B assay relative to control
[35] = tested on: OVCAR-3; test: Growth inhibition of human OVCAR3 cells at 10^-5 M incubated for 48 hrs by sulforhodamine B assay relative to control
[36] = tested on: SK-OV-3; test: Growth inhibition of human SKOV3 cells at 10^-5 M incubated for 48 hrs by sulforhodamine B assay relative to control
[37] = tested on: Candida albicans; test: Antifungal activity against Candida albicans at 100 ug/ml by disc diffusion method; conditions: read-out: IZ
[38] = tested on: UACC-257; test: Growth inhibition of human UACC257 cells at 10^-5 M incubated for 48 hrs by sulforhodamine B assay relative to control
[39] = tested on: MDA-MB-435; test: Growth inhibition of human MDA-MB-435 cells at 10^-5 M incubated for 48 hrs by sulforhodamine B assay relative to control
[40] = tested on: 786-0; test: Growth inhibition of human 786-0 cells at 10^-5 M incubated for 48 hrs by sulforhodamine B assay relative to control
[41] = tested on: NCI-H522; test: Growth inhibition of human NCI-H522 cells at 10^-5 M incubated for 48 hrs by sulforhodamine B assay relative to control
[42] = tested on: SF-295; test: Growth inhibition of human SF295 cells at 10^-5 M incubated for 48 hrs by sulforhodamine B assay relative to control
[43] = tested on: MDA-MB-468; test: Growth inhibition of human MDA-MB-468 cells at 10^-5 M incubated for 48 hrs by sulforhodamine B assay relative to control
[44] = tested on: SK-MEL-2; test: Growth inhibition of human SK-MEL-2 cells at 10^-5 M incubated for 48 hrs by sulforhodamine B assay relative to control
[45] = tested on: UO-31; test: Growth inhibition of human UO31 cells at 10^-5 M incubated for 48 hrs by sulforhodamine B assay relative to control

Compound: COc1ccc2nc(Cl)c(Cn3nnnc3CSc3ccccc3)cc2c1
- growth inhibition (GI) [1]: Active
- growth inhibition (GI) [2]: Active
- growth inhibition (GI) [3]: Active
- growth inhibition (GI) [4]: Active
- growth inhibition (GI) [5]: Active
- growth inhibition (GI) [6]: Active
- MIC [7]: 25 µg/mL (≈ 62.8 µM)
- growth inhibition (GI) [8]: Active
- growth inhibition (GI) [9]: Active
- growth inhibition (GI) [10]: Active
- zone of inhibition at 100 µg/mL [11]: 18 mm
- growth inhibition (GI) [12]: Active
- growth inhibition (GI) [13]: Active
- growth inhibition (GI) [14]: Active
- growth inhibition (GI) [15]: Active
- growth inhibition (GI) [16]: Active
- growth inhibition (GI) [17]: Active
- growth inhibition (GI) [18]: Active
- growth inhibition (GI) [19]: Active
- MIC [20]: 10 µg/mL (≈ 25.1 µM)
- growth inhibition (GI) [21]: Active
- growth inhibition (GI) [22]: Active
- growth inhibition (GI) [23]: Active
- growth inhibition (GI) [24]: Active
- growth inhibition (GI) [25]: Active
- growth inhibition (GI) [26]: Active
- growth inhibition (GI) [27]: Active
- growth inhibition (GI) [28]: Active
- growth inhibition (GI) [29]: Active
- growth inhibition (GI) [30]: Active
- growth inhibition (GI) [31]: Active
- growth inhibition (GI) [32]: Active
- growth inhibition (GI) [33]: Active
- growth inhibition (GI) [34]: Active
- growth inhibition (GI) [35]: Active
- growth inhibition (GI) [36]: Active
- zone of inhibition at 100 µg/mL [37]: 18 mm
- growth inhibition (GI) [38]: Active
- growth inhibition (GI) [39]: Active
- growth inhibition (GI) [40]: Active
- growth inhibition (GI) [41]: Active
- growth inhibition (GI) [42]: Active
- growth inhibition (GI) [43]: Active
- growth inhibition (GI) [44]: Active
- growth inhibition (GI) [45]: Active

Compound: Cc1ccc2nc(Cl)c(Cn3nnnc3CSc3ccccc3)cc2c1
- growth inhibition (GI) [1]: Active
- growth inhibition (GI) [2]: Active
- growth inhibition (GI) [3]: Active
- growth inhibition (GI) [4]: Active
- growth inhibition (GI) [5]: Active
- growth inhibition (GI) [6]: Active
- MIC [7]: 10 µg/mL (≈ 26.2 µM)
- growth inhibition (GI) [8]: Active
- growth inhibition (GI) [9]: Active
- growth inhibition (GI) [10]: Active
- zone of inhibition at 100 µg/mL [11]: 16 mm
- growth inhibition (GI) [12]: Active
- growth inhibition (GI) [13]: Active
- growth inhibition (GI) [14]: Active
- growth inhibition (GI) [15]: Active
- growth inhibition (GI) [16]: Active
- growth inhibition (GI) [17]: Active
- growth inhibition (GI) [18]: Active
- growth inhibition (GI) [19]: Active
- MIC [20]: 25 µg/mL (≈ 65.5 µM)
- growth inhibition (GI) [21]: Active
- growth inhibition (GI) [22]: Active
- growth inhibition (GI) [23]: Active
- growth inhibition (GI) [24]: Active
- growth inhibition (GI) [25]: Active
- growth inhibition (GI) [26]: Active
- growth inhibition (GI) [27]: Active
- growth inhibition (GI) [28]: Active
- growth inhibition (GI) [29]: Active
- growth inhibition (GI) [30]: Active
- growth inhibition (GI) [31]: Active
- growth inhibition (GI) [32]: Active
- growth inhibition (GI) [33]: Active
- growth inhibition (GI) [34]: Active
- growth inhibition (GI) [35]: Active
- growth inhibition (GI) [36]: Active
- zone of inhibition at 100 µg/mL [37]: 12 mm
- growth inhibition (GI) [38]: Active
- growth inhibition (GI) [39]: Active
- growth inhibition (GI) [40]: Active
- growth inhibition (GI) [41]: Active
- growth inhibition (GI) [42]: Active
- growth inhibition (GI) [43]: Active
- growth inhibition (GI) [44]: Active
- growth inhibition (GI) [45]: Active

Compound: Fc1ccc2nc(Cl)c(Cn3nnnc3Cc3ccccc3)cc2c1
- growth inhibition (GI) [1]: Active
- growth inhibition (GI) [2]: Active
- growth inhibition (GI) [3]: Active
- growth inhibition (GI) [4]: Active
- growth inhibition (GI) [5]: Active
- growth inhibition (GI) [6]: Active
- MIC [7]: 25 µg/mL (≈ 70.7 µM)
- growth inhibition (GI) [8]: Active
- growth inhibition (GI) [9]: Active
- growth inhibition (GI) [10]: Active
- zone of inhibition at 100 µg/mL [11]: 10 mm
- growth inhibition (GI) [12]: Active
- growth inhibition (GI) [13]: Active
- growth inhibition (GI) [14]: Active
- growth inhibition (GI) [15]: Active
- growth inhibition (GI) [16]: Active
- growth inhibition (GI) [17]: Active
- growth inhibition (GI) [18]: Active
- growth inhibition (GI) [19]: Active
- MIC [20]: 10 µg/mL (≈ 28.3 µM)
- growth inhibition (GI) [21]: Active
- growth inhibition (GI) [22]: Active
- growth inhibition (GI) [23]: Active
- growth inhibition (GI) [24]: Active
- growth inhibition (GI) [25]: Active
- growth inhibition (GI) [26]: Active
- growth inhibition (GI) [27]: Active
- growth inhibition (GI) [28]: Active
- growth inhibition (GI) [29]: Active
- growth inhibition (GI) [30]: Active
- growth inhibition (GI) [31]: Active
- growth inhibition (GI) [32]: Active
- growth inhibition (GI) [33]: Active
- growth inhibition (GI) [34]: Active
- growth inhibition (GI) [35]: Active
- growth inhibition (GI) [36]: Active
- zone of inhibition at 100 µg/mL [37]: 13 mm
- growth inhibition (GI) [38]: Active
- growth inhibition (GI) [39]: Active
- growth inhibition (GI) [40]: Active
- growth inhibition (GI) [41]: Active
- growth inhibition (GI) [42]: Active
- growth inhibition (GI) [43]: Active
- growth inhibition (GI) [44]: Active
- growth inhibition (GI) [45]: Active
